Test results as given in US20030220300A1, “Reduction of hair growth” (priority 2002, published 2003).

Experiments:
[1] = tested on: Human hair follicles in growth phase (anagen); assay: Human hair follicle growth assay; format: cell-based; conditions: for % Reduction of human hair follicle growth / Hair follicle length increase (mm) Treated: day 0 to day 7 (Table II)
Description: Human Hair Follicle Growth Assay
Tissue source—Human skin was obtained from a plastic surgeon as a by-product of face-lift procedures. Immediately after removal, the skin was placed in Williams E medium containing antibiotics and refrigerated. The Williams E medium is a commercially obtained medium which has been formulated with essential nutrients for maintaining viability of tissues or cells such as of hair follicle in an in-vitro environment.
Hair Follicle Isolation and Culture—Human hair follicles in growth phase (anagen) were isolated from face-lift tissue (obtained from plastic surgeons) under dissecting scope using a scalpel and watchmakers forceps. The skin was sliced into thin strips exposing 2-3 rows of follicles that could readily be dissected. Follicles were placed into 0.5 ml William's E medium (Life Technologies, Gaithersburg, Md.) supplemented with 2 mM L-glutamine, 10 μg/ml insulin, 10 ng/ml hydrocortisone, 100 units of penicillin, 0.1 mg/ml streptomycin and 0.25 μg/ml amphotericin B. The follicles were incubated in 24-well plates (1 follicle/well) at 37° C. in an atmosphere of 5% CO2 and 95% air. Thiazolidinediones are dissolved into dimethyl sulfoxide as 100-fold stock solution. The control hair follicles were treated with dimethyl sulfoxide without thiazolidinedione. The follicles were photographed in the 24-well plates under the dissecting scope at a power of 10×. Typically, image recordings were made on day 0 (day follicles were placed in culture), and again on day 7. The length of Hair follicle was assessed using an image analysis software system (Jasc Image Robot). The growth of hair fiber was calculated by the subtracting the follicle length on day 0 from that determined on day 7.

[2] = tested on: Golden Syrian hamster flank organs (hair growth); assay: Golden Syrian hamster assay (hair mass assay); format: in vivo; conditions: topical, three weeks
Description: Golden Syrian Hamster Assay
Male intact Golden Syrian hamsters are considered acceptable models for human beard hair growth in that they display oval shaped flank organs, one on each side, each about 8 mm. in major diameter. These organs produce fine light colored hair typical of the animal pelage found on the body. In response to androgens the flank organs produce dark coarse hair similar to male human beard hair. To evaluate the effectiveness of a composition in reducing hair growth, the flank organs of each of a group of hamsters are depilated by applying a thioglycolate based chemical depilatory (Surgex) and/or shaved. To one organ of each animal 10 μl. of vehicle alone once a day is applied, while to the other organ of each animal an equal amount of vehicle containing the ligand under evaluation is applied. After three weeks of topical applications (one application per day for five days a week), the flank organs are shaved and the amount of recovered hair (hair mass) from each is weighed. Percent-reduction of hair growth is calculated by subtracting the hair mass (mg) value of the test compound treated side from the hair mass value of the vehicle treated side; the delta value obtained is then divided by the hair mass value of the vehicle treated side, and the resultant number is multiplied by 100.
The above-described assay will be referred to herein as the “Golden Syrian hamster” assay or “hair mass” assay. Preferred compositions provide a reduction in hair growth of at least about 15% and more preferably at least about 35%, when tested in the Golden Syrian hamster assay.

O=C1NC(=S)SC1=Cc1cc([N+](=O)[O-])ccc1Sc1ccccc1 [5-(5-nitro-2-phenylsulfanyl-benzylidene)-2-thioxo-thiazolidin-4-one]
% Reduction ([1]; 0.1 μM (Table VI)): 66.9 ± 15.2%
Hair follicle length increase (mm) ([1]; 0.1 μM (Table VI)): 0.37 ± 0.17 mm
% Reduction ([1]; 0.5 μM (Table VI)): 85.7 ± 15.2%
Hair follicle length increase (mm) ([1]; 0.5 μM (Table VI)): 0.16 ± 0.17 mm
% Reduction ([1]; 1.0 μM (Table VI)): 93.7 ± 7.1%
Hair follicle length increase (mm) ([1]; 1.0 μM (Table VI)): 0.07 ± 0.08 mm
% Reduction of human hair follicle growth ([1]; 10 μM): 94.6 ± 3.9%
Hair follicle length increase (mm) Treated ([1]; 10 μM): 0.11 ± 0.08 mm
Effect on human hair growth (in words) ([1]; human hair follicle growth assay, summary of Table II): can reduce human hair growth

CC1(COc2ccc(CC3SC(=O)NC3=O)cc2)CCCCC1 (centres unmarked) [Ciglitazone, ciglitazone]
% Reduction of hamster hair mass ([2]; dose 1.3%, vehicle A): 22.7 ± 5.8%
Treated (mg) hair mass ([2]; dose 1.3%, vehicle A): 2.78 ± 0.23 mg
% Reduction of hamster hair mass ([2]; dose 1.3%, vehicle A, listed as ciglitazone): 22.7%
% Reduction ([1]; 3 μM (Table III)): 38.2 ± 23.0%
Hair follicle length increase (mm) ([1]; 3 μM (Table III)): 1.34 ± 0.5 mm
% Reduction ([1]; 6 μM (Table III)): 75.1 ± 13.8%
Hair follicle length increase (mm) ([1]; 6 μM (Table III)): 0.54 ± 0.3 mm
% Reduction ([1]; 9 μM (Table III)): 90.8 ± 9.2%
Hair follicle length increase (mm) ([1]; 9 μM (Table III)): 0.2 ± 0.2 mm
% Reduction of human hair follicle growth ([1]; 20 μM): 87.5 ± 15.6%
Hair follicle length increase (mm) Treated ([1]; 20 μM): 0.19 ± 0.24 mm

CCc1ccc(CCOc2ccc(CC3SC(=O)NC3=O)cc2)nc1 (centres unmarked) [Pioglitazone, pioglitazone]
% Reduction of hamster hair mass ([2]; dose 5%, vehicle B): 47.7 ± 4.1%
Treated (mg) hair mass ([2]; dose 5%, vehicle B): 1.32 ± 0.06 mg
% Reduction of hamster hair mass ([2]; dose 5%, vehicle B, listed as pioglitazone): 47.7%
% Reduction ([1]; 15 μM (Table IV)): 30.2 ± 19.8%
Hair follicle length increase (mm) ([1]; 15 μM (Table IV)): 0.67 ± 0.19 mm
% Reduction ([1]; 30 μM (Table IV)): 76.0 ± 16.7%
Hair follicle length increase (mm) ([1]; 30 μM (Table IV)): 0.23 ± 0.16 mm
% Reduction ([1]; 45 μM (Table IV)): 89.6 ± 14.6%
Hair follicle length increase (mm) ([1]; 45 μM (Table IV)): 0.1 ± 0.14 mm
% Reduction of human hair follicle growth ([1]; 50 μM): 86.7 ± 6.2%
Hair follicle length increase (mm) Treated ([1]; 50 μM): 0.15 ± 0.07 mm

CN(CCOc1ccc(CC2SC(=O)NC2=O)cc1)c1ccccn1 (centres unmarked) [Rosiglitazone, rosiglitazone]
% Reduction of hamster hair mass ([2]; dose 10%, vehicle A): 40.0 ± 5.0%
Treated (mg) hair mass ([2]; dose 10%, vehicle A): 1.78 ± 0.71 mg
% Reduction of hamster hair mass ([2]; dose 10%, vehicle A, listed as rosiglitazone): 40%
% Reduction ([1]; 20 μM (Table V)): 34.8 ± 20.6%
Hair follicle length increase (mm) ([1]; 20 μM (Table V)): 0.92 ± 0.29 mm
% Reduction ([1]; 40 μM (Table V)): 47.5 ± 10.6%
Hair follicle length increase (mm) ([1]; 40 μM (Table V)): 0.74 ± 0.15 mm
% Reduction ([1]; 60 μM (Table V)): 63.1 ± 14.1%
Hair follicle length increase (mm) ([1]; 60 μM (Table V)): 0.52 ± 0.2 mm
% Reduction of human hair follicle growth ([1]; 100 μM): 75.2 ± 16.5%
Hair follicle length increase (mm) Treated ([1]; 100 μM): 0.24 ± 0.16 mm

Cc1c(C)c2c(c(C)c1O)CCC(C)(COc1ccc(CC3SC(=O)NC3=O)cc1)O2 (centres unmarked) [Troglitazone, troglitazone]
% Reduction of human hair follicle growth ([1]; 100 μM): 91.5 ± 6.2%
Hair follicle length increase (mm) Treated ([1]; 100 μM): 0.11 ± 0.08 mm
